According to paper PMC8006714 (Chemical Communications (Cambridge, England), 2021):
Structures can show the parent of a compound that is named as a salt. Where two headings read alike, the source gives them in different places.

Target: SARS-CoV-2 M^pro (Severe acute respiratory syndrome coronavirus 2, UniProt P0DTD1)
Test: biochemical
Type: biochemical
Details: for M^pro inhibition at single concentrations (in words): 20, 50 and 100 µM β-lactam, 30 min or 60 min preincubation (Fig. S17)
[1] = read-out: % Mpro inhibition at 20 µM
[2] = read-out: % Mpro inhibition at 20 µM, library of FDA-approved small molecules, 20 µM compound, […] Mpro, 2.0 µM TSAVLQ/SGFRK-NH2
[3] = read-out: % Mpro inhibition at 20 µM, LOPAC1280 library, 20 µM compound, […] Mpro, 2.0 µM TSAVLQ/SGFRK-NH2

## NC(=O)c1cc[n+](CC2=C(C(=O)[O-])N3C(=O)[C@@H](NC(=O)Cc4cccs4)[C@H]3SC2)cc1 [Cefalonium]
[1]
  inhibition at 20 µM: 9.2%

## CC(C)(C)c1ccc(S(=O)(=O)/C=C/C#N)cc1 [Bay 11-7085]
  % Mpro inhibition at 20 µM: 95.0%

## NC(N)=Nc1ccc2[nH]c3c(c2c1)C[C@@]1(O)[C@H]2Cc4ccc(O)c5c4[C@@]1(CCN2CC1CC1)[C@H]3O5.O=C(O)C(F)(F)F.O=C(O)C(F)(F)F [Guanidinyl-naltrindole di-trifluoroacetate]
  % Mpro inhibition at 20 µM: 99.6%

## Br.NC1CCc2cc(O)c(O)cc2C1 (racemic) [(±)-2-Amino-6,7-dihydroxy-1,2,3,4-tetrahydronaphthalene hydrobromide]
  % Mpro inhibition at 20 µM: 88.3%

## O=C1[C@H](CC[C@H](O)c2ccc(F)cc2)[C@@H](c2ccc(O)cc2)N1c1ccc(F)cc1 [ezetimibe]
  M^pro inhibition at single concentrations (in words): weak time dependent inhibition

## [Cl-].[NH3+][Pt-2]([NH3+])([Cl])[n+]1ccccc1 (stereo not drawn) [cis-Diammine(pyridine)chloroplatinum(II) chloride]
  % Mpro inhibition at 20 µM: 99.6%

## CC1(C)S[C@@H]2[C@H](NC(=O)COc3ccccc3)C(=O)N2[C@H]1C(=O)O [penicillin V]
  M^pro inhibition at single concentrations (in words): No inhibition was observed

## S=C=NCc1ccccc1 [Benzyl isothiocyanate]
[1]
  inhibition at 20 µM: 95.8%

## Oc1ccccc1O [Pyrocatechol]
  % Mpro inhibition at 20 µM: 85.4

## O=C(N[C@@H](Cc1ccccc1)C(=O)CCl)OCc1ccccc1 [N-Carbobenzyloxy-L-phenylanlanyl chloromethyl ketone]
  % Mpro inhibition at 20 µM: 100.0%

## O=[N+]([O-])c1ccc(O)c2ncccc12 [Nitroxoline]
[2]
  inhibition at 20 µM: 96%

## CC[N+]1(C)CCCC(OC(=O)C(O)(c2ccccc2)c2ccccc2)C1 (centres unmarked) [Pipenzolate bromide]
[1]
  inhibition at 20 µM: 100%

## Colistin sulfate
  % Mpro inhibition at 20 µM: 95.8%

## Cc1c(-c2cnccn2)ssc1=S [Oltipraz]
Library of FDA-approved small molecules, 20 µM compound, […] Mpro, 2.0 µM TSAVLQ/SGFRK-NH2, read-out: % Mpro inhibition at 20 µM
  inhibition at 20 µM: 99.6%

## C=CC1=C(C(=O)O)N2C(=O)[C@@H](NC(=O)/C(=N\O)c3csc(N)n3)[C@H]2SC1 [Cefdinir]
  M^pro inhibition at single concentrations (in words): weak time dependent inhibition

## Oc1cc(O)cc(/C=C/c2ccc(O)c(O)c2)c1 [Piceatannol]
[1]
  inhibition at 20 µM: 93.8%

## Chlorophyllide copper complex sodium salt
  % Mpro inhibition at 20 µM: 86.5%

## CC1(C)S[C@@H]2[C@H](NC(=O)Cc3ccccc3)C(=O)N2[C@H]1C(=O)O [penicillin G]
  M^pro inhibition at single concentrations (in words): No inhibition was observed

## CC(=O)OCC1=C(C(=O)[O-])N2C(=O)[C@@H](NC(=O)CCCC(N)C(=O)O)[C@H]2SC1.[Na+] (some centres unmarked) [Cephalosporin C sodium]
  % Mpro inhibition at 20 µM: 78.3%
  M^pro inhibition (in words): inhibited

## CCCN1CCc2cccc3c2[C@H]1Cc1ccc(O)c(O)c1-3.Cl [(R)-(−)-Propylnorapomorphine hydrochloride]
  % Mpro inhibition at 20 µM: 100.0%

## COc1ccc2c(c[n+](C)c3c4cc5c(cc4ccc23)OCO5)c1OC [Chelerythrine chloride]
[1]
  inhibition at 20 µM: 85.2%

## CCN(CC)C(=S)SSC(=S)N(CC)CC [Disulfiram, Tetraethylthiuram disulphide]
  inhibition at a fixed 20 μM inhibitor concentration: ≥ 80%
[3]
  inhibition at 20 µM: 97.5%
[2]
  inhibition at 20 µM: 99.1%

## C[n+]1cc2c3c(ccc2c2ccc4cc5c(cc4c21)OCO5)OCO3 [Sanguinarium chloride, Sanguinarine chloride]
  % Mpro inhibition at 20 µM: 98.7%
[1]
  inhibition at 20 µM: 100%

## CC1(C)S[C@@H]2[C@H](NC(=O)[C@H](N)c3ccccc3)C(=O)N2[C@H]1C(=O)OC1OC(=O)c2ccccc21 (some centres unmarked) [talampicillin]
  M^pro inhibition at single concentrations (in words): weak time dependent inhibition

## Br.CCCN1CCc2cc(O)cc3c2[C@H]1Cc1ccc(O)c(O)c1-3 [(R)-(−)-2,10,11-Trihydroxy-n-propylnoraporphine hydrobromide]
  % Mpro inhibition at 20 µM: 98.3%

## Br.CN=c1nc(-c2ccccc2)n(-c2ccccc2)s1 [Sch-202676 hydrobromide]
  % Mpro inhibition at 20 µM: 100.0%

## CC=CC1=C(C(=O)O)N2C(=O)[C@@H](NC(=O)[C@H](N)c3ccc(O)cc3)[C@H]2SC1 [Cefprozil]
  % Mpro inhibition at 20 µM: 57.5%

## O=c1oc(Cl)c(Cl)c2ccccc12 [3,4-Dichloroisocoumarin]
[1]
  inhibition at 20 µM: 80.4%

## O=C([O-])c1ccccc1-c1c2cc(I)c(=O)c(I)c-2oc2c(I)c([O-])c(I)cc12.[Na+].[Na+] [Erythrosine sodium]
  % Mpro inhibition at 20 µM: 86.5%

## CCN[C@@H]1C[C@H](N)[C@@H](O[C@H]2OC(CN)=CC[C@H]2N)[C@H](O)[C@H]1O[C@H]1OC[C@](C)(O)[C@H](NC)[C@H]1O.CCN[C@@H]1C[C@H](N)[C@@H](O[C@H]2OC(CN)=CC[C@H]2N)[C@H](O)[C@H]1O[C@H]1OC[C@](C)(O)[C@H](NC)[C@H]1O.O=S(=O)(O)O.O=S(=O)(O)O.O=S(=O)(O)O.O=S(=O)(O)O.O=S(=O)(O)O [Netilmicin sulfate]
  % Mpro inhibition at 20 µM: 89.1%

## NCc1ccccc1CC(=O)N[C@@H]1C(=O)N2C(C(=O)O)=C(CSc3nnnn3CC(=O)O)CS[C@H]12 [Ceforanide]
[1]
  inhibition at 20 µM: 10.2%

## (R)-(−)-2,10,11-Trihydroxyaporphine hybrobromide
  % Mpro inhibition at 20 µM: 99.6%

## CO/N=C(\C(=O)N[C@@H]1C(=O)N2C(C(=O)O)=C(CSC(=O)c3ccco3)CS[C@H]12)c1csc(N)n1.Cl [Ceftiofur hydrochloride]
  % Mpro inhibition at 20 µM: 65.0%

## O=C1C=CC(=O)C=C1 [1,4-Benzoquinone]
[1]
  inhibition at 20 µM: 99.3%

## NC(=O)CI [Iodoacetamide]
  % Mpro inhibition at 20 µM: 99.3%

## CO/N=C(\C(=O)N[C@@H]1C(=O)N2C(C(=O)O)=C(CSC(=O)c3ccco3)CS[C@H]12)c1csc(N)n1 [ceftiofur]
  M^pro inhibition at single concentrations (in words): weak time dependent inhibition

## CC(=O)/N=c1/sc(S(N)(=O)=O)nn1C [Methazolamide]
[1]
  inhibition at 20 µM: 82.9%

## Oc1cc2c(cc1O)CN(C(=S)NCCc1ccc(Cl)cc1)CCC2 [Capsazepine]
[3]
  inhibition at 20 µM: 94.5%

## CC(Cc1ccc(O)c(O)c1)C(C)Cc1ccc(O)c(O)c1 (centres unmarked) [Nordihydroguaiaretic acid]
  % Mpro inhibition at 20 µM: 97.8%

## CC(C)N(CCC(=O)c1ccc2ccccc2c1)Cc1ccccc1.Cl [ZM 39923 hydrochloride]
  % Mpro inhibition at 20 µM: 96.9%

## O=Nc1ccc2oc(=O)ccc2c1 [6-Nitroso-1,2-benzopyrone]
  % Mpro inhibition at 20 µM: 99.5%

## N.S=C(S)N1CCCC1 [Ammonium pyrrolidinedithiocarbamate]
  % Mpro inhibition at 20 µM: 95.1%

## CC1=C(C(=O)O)N2C(=O)[C@@H](NC(=O)[C@H](N)c3ccccc3)[C@H]2SC1 [cephalexin]
SPE-MS, concentration not given
  M^pro inhibition (in words): no Mpro inhibition was observed

## CO/N=C(\C(=O)N[C@@H]1C(=O)N2C(C(=O)O)=C(C[N+]3(C)CCCC3)CS[C@H]12)c1csc(N)n1 [Cefepime hydrochloride]
[1]
  inhibition at 20 µM: 20.6%

## N[C@@H](C(=O)N[C@@H]1C(=O)N2C(C(=O)O)=C(Cl)CS[C@H]12)c1ccccc1 [Cefaclor]
[3]
  inhibition at 20 µM: 8.7%

## OC[C@H]1O[C@H]([S-])[C@H](O)[C@@H](O)[C@@H]1O.[Au+] [Aurothioglucose]
  % Mpro inhibition at 20 µM: 96.6%
